As usually defined, the IC50 is the concentration that inhibits the measured activity by half.

The values below come from ChEMBL document CHEMBL5038666, “Discovery of DNA-Targeting HDAC Inhibitors with Potent Antitumor Efficacy In Vivo That Trigger Antitumor Immunity” (J Med Chem, 2022).

Data set [1] relates to B16-F10. Kind of data set: Antitumor immunity against mouse B16-F10 cells implanted in C57BL/6J mouse assessed as fold increase of CD3+ T cells in spleen by flow cytometry analysis relative to control. It is filed as functional.
The test system of data set [2] is B16-F10. In words: Antitumor immunity against mouse B16-F10 cells implanted in C57BL/6J mouse assessed as fold increase in CD107a expression by flow cytometry analysis relative to control. It is filed as functional. (A flow cytometer gives signals particle by particle.)
The subject of data set [3] is B16-F10. Kind of data set: Antitumor immunity against mouse B16-F10 cells implanted in C57BL/6J mouse assessed as fold increase of CD8+ T cells in spleen by flow cytometry analysis relative to control. Type of data set: functional.
In data set [4] the test system is B16-F10. In words: Antitumor immunity against mouse B16-F10 cells implanted in C57BL/6J mouse assessed as fold increase of CD4+ T cells in spleen by flow cytometry analysis relative to control. It is filed as functional.
The subject of data set [5] is B16-F10. In words: Antitumor immunity against mouse B16-F10 cells implanted in C57BL/6J mouse assessed as increase in proportion of dendritic cells by flow cytometry analysis. Type of data set: functional, cell-based.
Data set [6] relates to B16-F10. In words: Antitumor activity against mouse B16-F10 cells implanted in C57BL/6J mouse assessed as reduction on tumor volume at 60 mg/kg, IG administered for 12 days. It is filed as functional, organism-based. The note with it: time 12.0 day.
Data set [7] concerns the target Histone deacetylase. In words: Inhibition of HDAC in human HeLa nuclear extract using fluorogenic substrate incubated for 30 mins by fluorescence based assay. Type of data set: cell-based.
In data set [8] the test system is B16-F10. In words: Antitumor activity against mouse B16-F10 cells implanted in C57BL/6J mouse assessed as reduction on tumor weight at 60 mg/kg, IG administered for 12 days. The note with it: time 12.0 day. Type of data set: functional, organism-based.
Data set [9] has as its system B16-F10. In words: Antitumor immunity against mouse B16-F10 cells implanted in C57BL/6J mouse assessed as fold increase in ICOS expression by flow cytometry analysis relative to control. It is filed as functional.
Data set [10] concerns B16-F10. Kind of data set: Antitumor immunity against mouse B16-F10 cells implanted in C57BL/6J mouse assessed as fold reduction in M2 macrophages in tumor microenvironment by flow cytometry analysis relative to control. It is filed as functional.
Data set [11] concerns B16-F10. Kind of data set: Antitumor immunity against mouse B16-F10 cells implanted in C57BL/6J mouse assessed as fold reduction in macrophages in tumor microenvironment by flow cytometry analysis relative to control. It is filed as functional.
Data set [12] in a line: Toxicity in C57BL/6J mouse implanted with mouse B16-F10 cells assessed as heart damage at 60 mg/kg, IG administered for 12 days H and E staining based histopathological analysis. Type of data set: organism-based. The note with it: in vivo, po, 288 h, time 12 day.
For data set [13], the target named is Histone deacetylase 2 (Homo sapiens, UniProt Q92769). Kind of data set: Inhibition of HDAC2 (unknown origin) using fluorogenic substrate incubated for 30 mins by fluorescence based assay.
Data set [14] concerns HEL. In words: cells. Type of data set: functional, cell-based. The note with it: Homo sapiens, 48 h.
Description: Antiproliferative activity against HEL cells assessed as inhibition of cell growth measured after 48 hrs by MTT assay
In data set [15] the test system is B16-F10. In words: Antitumor immunity against mouse B16-F10 cells implanted in C57BL/6J mouse assessed as fold increase in IFN-gamma secretion by flow cytometry analysis relative to control. Type of data set: functional.
Data set [16] is described as follows: Toxicity in C57BL/6J mouse implanted with mouse B16-F10 cells assessed as glomerular structure damage in kidney at 60 mg/kg, IG administered for 12 days H and E staining based histopathological analysis. It is filed as organism-based. Particulars: in vivo, po, 288 h, time 12 day.
Data set [17] relates to B16-F10. In words: Antitumor immunity against mouse B16-F10 cells implanted in C57BL/6J mouse assessed as fold increase in CD69 expression by flow cytometry analysis relative to control. Type of data set: functional.
The test system of data set [18] is K562. Kind of data set: cells. Type of data set: functional, cell-based. The note with it: Homo sapiens, K562, 48 h.
Description: Antiproliferative activity against human K562 cells assessed as inhibition of cell growth measured after 48 hrs by MTT assay
Data set [19] has as its system B16-F10. Kind of data set: Antitumor immunity against mouse B16-F10 cells implanted in C57BL/6J mouse assessed as fold increase in downregulation of CD200R expression in spleen by flow cytometry analysis relative to control. It is filed as functional.
The nature of data set [20]: Toxicity in C57BL/6J mouse implanted with mouse B16-F10 cells assessed as lung damage at 60 mg/kg, IG administered for 12 days H and E staining based histopathological analysis. Type of data set: organism-based. Particulars: in vivo, po, 288 h, time 12 day.
The test system of data set [21] is KG-1. Kind of data set: Potency index, ratio of SAHA IC50 to test compound IC50 for antiproliferative activity against human KG1 cells assessed as inhibition of cell growth measured after 48 hrs by MTT assay. It is filed as functional. In general terms: Formazan colour is commonly taken as a measure of viable cells.
In data set [22] the test system is KG-1. In words: Downregulation of SSRP-1 expression in human KG-1 cells assessed as chromatin damage at 0.5 to […] measured after 24 hrs by Western blot analysis. Type of data set: functional, cell-based. Particulars: dose 0.5-2.5 µM.
The target in data set [23] is T1, Histone deacetylase (Homo sapiens) (UniProt Q13547+O15379+Q9UBN7+Q92769+Q9UQL6+Q8WUI4+Q9BY41+Q96DB2+P56524+Q9UKV0+Q969S8). In words: Inhibition of HDAC in human KG1 cells assessed as increase in acetylation of alpha tubulin measured after 24 hrs by Western blot analysis. It is filed as cell-based. Particulars: KG-1, dose 0.5-2.5 µM.
Data set [24] deals with KG-1. In words: Downregulation of SPT16 expression in human KG-1 cells assessed as chromatin damage at 0.5 to […] measured after 24 hrs by Western blot analysis. It is filed as functional, cell-based. The note with it: dose 0.5-2.5 µM. For orientation: Immunoblotting shows a protein as a band on a membrane.
For data set [25], the system named is Calf thymus DNA. In words: Binding affinity to calf thymus DNA assessed as increase in absorption at 20 uM by UV-vis absorption spectroscopy. It is filed as nucleic-acid assay. Particulars: Bos taurus.
Data set [26] has as its system B16-F10. Kind of data set: Antitumor immunity against mouse B16-F10 cells implanted in C57BL/6J mouse assessed as increase in proportion of T cells in spleen by flow cytometry analysis. It is filed as functional, cell-based.
Data set [27] deals with KG-1. In words: Induction of apoptosis in human KG-1 cells measured after 24 hrs by Annexin V-FITC/propidium iodide staining based flow cytometry analysis. Particulars: dose 0.5-1 µM. It is filed as functional, cell-based.
The test system of data set [28] is KG-1. Kind of data set: Induction of apoptosis in human KG-1 cells assessed as total apoptotic cells at 1 uM measured after 24 hrs by Annexin V-FITC/propidium iodide staining based flow cytometry analysis relative to control. Type of data set: functional.
Data set [29] deals with T1, Histone deacetylase (Homo sapiens). In words: Inhibition of HDAC in human KG-1 cells assessed as increase in acetylation of histone H3 measured after 24 hrs by Western blot analysis. It is filed as cell-based. The note with it: dose 0.5-2.5 µM.
For data set [30], the system named is KG-1. In words: Induction of apoptosis in human KG-1 cells assessed as increase in cleaved active caspase 3 level at 0.5 to […] measured after 24 hrs by Western blot analysis. It is filed as functional, cell-based. Particulars: dose 0.5-2.5 µM.
For data set [31], the system named is Calf thymus DNA. In words: Binding affinity to calf thymus DNA assessed as change in entropy at 500 microM by isothermal titration calorimetric analysis. Particulars: Bos taurus. Type of data set: nucleic-acid assay.

Each structure is given as a SMILES string. The source made the active and inactive calls. The rule behind the calls is not given here.

Sequence of Histone deacetylase 2 (Q92769 whole entry): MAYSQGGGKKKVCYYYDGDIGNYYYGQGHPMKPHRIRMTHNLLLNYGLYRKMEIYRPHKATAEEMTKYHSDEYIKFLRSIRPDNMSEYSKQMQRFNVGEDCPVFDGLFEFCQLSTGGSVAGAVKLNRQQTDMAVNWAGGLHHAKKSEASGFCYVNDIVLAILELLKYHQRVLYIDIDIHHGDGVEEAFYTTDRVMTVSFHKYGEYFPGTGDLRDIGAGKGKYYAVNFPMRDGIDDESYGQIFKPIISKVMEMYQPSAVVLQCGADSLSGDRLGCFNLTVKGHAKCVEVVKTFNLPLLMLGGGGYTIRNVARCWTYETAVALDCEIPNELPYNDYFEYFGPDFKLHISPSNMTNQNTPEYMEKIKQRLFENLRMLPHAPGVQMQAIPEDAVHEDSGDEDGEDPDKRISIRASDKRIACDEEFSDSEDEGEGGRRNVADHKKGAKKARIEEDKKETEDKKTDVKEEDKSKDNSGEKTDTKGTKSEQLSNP

`O=C(CCCCCCCOc1cccc(-c2nc3ccccc3[nH]2)c1)NO`: the “fold change (FC)” value in data set [1] was 1.6; in data set [2], 1.5; in data set [3] it was 1.5; in data set [4], 2; in [9], 1.5; in data set [10], 1.5. Further, the “fold change (FC)” value in data set [11] amounted to 1.7; in data set [15], 1.5; in data set [17] it was 1.5; in data set [19] it was 1.3. The result in data set [5] was inactive. The result in data set [6] and in [8] was Active. For the same compound, the 50% inhibitory concentration (IC50) is 7.9 nM in data set [7], 91 nM in [13], 360 nM in data set [14] and 990 nM in data set [18]. The figures for the Activity result in data set [12], in [16] and in data set [20] were “Non-Toxic”, “Toxic” and “Non-Toxic”, respectively.

For `O=C(CCCCCCOc1cccc(-c2nc3ccccc3[nH]2)c1)NO`, the “fold change (FC)” value amounted to 50 in [21], 1.7 in [11] and 1.3 in data set [19]. The result in data set [22], in [24], in data set [25], in data set [26], in [6] and in data set [8] was Active. Also, the result in data set [30] was Active. The Activity result in data set [23] was “Dose-Dependent Effect”; in data set [27], “Dose-Dependent Effect”; in data set [28], 56.9%; in [12], “Non-Toxic”; in [29] it was “Dose-Dependent Effect”; in data set [16] it was “Non-Toxic”. In addition, the IC50 in data set [7] was 13.2 nM; in data set [13] it was 46 nM; in data set [14], 20 nM; in data set [18] it was 290 nM. Moreover, the -TdeltaS in data set [31] worked out at 74 kcal/mol.
